Patent US7955808B2, “Bitter taste receptors” (Deutsches Institut für Ernährungsorschung, Stiftung des …, priority 2002, dated 2011)

What was measured:
hTAS2R46 = molecular target: T1, hTAS2R46 (Homo sapiens, UniProt P59540); experiment: FLIPR assay, heterologous expression of hTAS2R46; assay type: cell-based
T1 construct: gene-specific primers that span the complete coding region of the individual hTAS2R genes; first 45 amino acids of rat somatostatin type 3 receptor (cell surface-targeting signal) (N); expressed in transfected cells; host or cells: HEK-293T-Gα16gustducin44 cells (alternatively HEK-293 co-transfected with phospholipase-Cβ2 and α-gustducin)
T1 sequence (P59540 with tags, fused parts or gaps limits assumed): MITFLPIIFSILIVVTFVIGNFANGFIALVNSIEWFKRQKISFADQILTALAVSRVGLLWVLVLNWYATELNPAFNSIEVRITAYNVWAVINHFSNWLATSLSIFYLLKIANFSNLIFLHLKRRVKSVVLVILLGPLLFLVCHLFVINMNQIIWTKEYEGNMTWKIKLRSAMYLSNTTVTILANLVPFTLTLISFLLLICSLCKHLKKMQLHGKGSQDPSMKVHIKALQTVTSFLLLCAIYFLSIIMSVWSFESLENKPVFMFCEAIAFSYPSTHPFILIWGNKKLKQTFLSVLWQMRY
Text: (§1) Transient transfection of TAS2Rs into HEK-293T-Gα16gustducin44 cells.

hTAS2R45 = molecular target: T2, hTAS2R45 (Homo sapiens, UniProt P59539); experiment: FLIPR assay, heterologous expression of hTAS2R45; assay type: cell-based
T2 construct: gene-specific primers that span the complete coding region of the individual hTAS2R genes; first 45 amino acids of rat somatostatin type 3 receptor (cell surface-targeting signal) (N); expressed in transfected cells; host or cells: HEK-293T-Gα16gustducin44 cells (alternatively HEK-293 co-transfected with phospholipase-Cβ2 and α-gustducin)
T2 sequence (P59539 1-299): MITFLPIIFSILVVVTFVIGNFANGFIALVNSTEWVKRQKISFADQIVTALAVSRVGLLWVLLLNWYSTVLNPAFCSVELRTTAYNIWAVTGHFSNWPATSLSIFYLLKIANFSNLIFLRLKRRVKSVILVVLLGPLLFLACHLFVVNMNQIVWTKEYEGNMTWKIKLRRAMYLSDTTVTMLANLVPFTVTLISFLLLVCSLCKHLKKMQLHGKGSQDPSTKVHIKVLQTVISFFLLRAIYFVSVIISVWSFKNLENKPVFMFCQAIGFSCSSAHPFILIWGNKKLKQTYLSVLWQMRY
Text: as §1

hTAS2R10 = molecular target: T3, hTAS2R10 (Homo sapiens, UniProt Q9NYW0, T156M); experiment: FLIPR assay, heterologous expression of hTAS2R10; assay type: cell-based; conditions: hTAS2R10
T3 construct: gene-specific primers that span the complete coding region of the individual hTAS2R genes; first 45 amino acids of rat somatostatin type 3 receptor (cell surface-targeting signal) (N); expressed in transfected cells; host or cells: HEK-293T-Gα16gustducin44 cells (alternatively HEK-293 co-transfected with phospholipase-Cβ2 and α-gustducin)
T3 sequence (Q9NYW0 1-307 T156M): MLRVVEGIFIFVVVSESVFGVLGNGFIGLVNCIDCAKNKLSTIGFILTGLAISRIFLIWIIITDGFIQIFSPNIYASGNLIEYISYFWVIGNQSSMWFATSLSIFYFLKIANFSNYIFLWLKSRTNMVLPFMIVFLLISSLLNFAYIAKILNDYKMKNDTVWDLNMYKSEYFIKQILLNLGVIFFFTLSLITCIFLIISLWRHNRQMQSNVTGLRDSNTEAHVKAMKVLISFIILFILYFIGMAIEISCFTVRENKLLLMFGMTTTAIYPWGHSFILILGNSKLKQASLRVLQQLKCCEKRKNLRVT
Text: as §1

hTAS2R48 = molecular target: T4, hTAS2R48 (Homo sapiens, UniProt P59542); experiment: FLIPR assay, heterologous expression of hTAS2R48; assay type: cell-based
T4 construct: gene-specific primers that span the complete coding region of the individual hTAS2R genes; first 45 amino acids of rat somatostatin type 3 receptor (cell surface-targeting signal) (N); expressed in transfected cells; host or cells: HEK-293T-Gα16gustducin44 cells (alternatively HEK-293 co-transfected with phospholipase-Cβ2 and α-gustducin)
T4 sequence (P59542 1-299): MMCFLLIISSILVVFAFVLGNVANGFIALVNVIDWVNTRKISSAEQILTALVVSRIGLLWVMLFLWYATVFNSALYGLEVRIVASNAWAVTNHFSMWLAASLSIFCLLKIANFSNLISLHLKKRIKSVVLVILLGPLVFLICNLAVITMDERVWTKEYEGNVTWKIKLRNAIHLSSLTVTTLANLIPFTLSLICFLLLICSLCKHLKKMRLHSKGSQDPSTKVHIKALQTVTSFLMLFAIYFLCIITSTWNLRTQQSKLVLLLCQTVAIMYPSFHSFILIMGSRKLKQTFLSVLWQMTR
Text: as §1

hTAS2R44 = hTAS2R44 (Homo sapiens, UniProt P59538, L162M)
Sequence of hTAS2R44 (P59538 whole entry L162M): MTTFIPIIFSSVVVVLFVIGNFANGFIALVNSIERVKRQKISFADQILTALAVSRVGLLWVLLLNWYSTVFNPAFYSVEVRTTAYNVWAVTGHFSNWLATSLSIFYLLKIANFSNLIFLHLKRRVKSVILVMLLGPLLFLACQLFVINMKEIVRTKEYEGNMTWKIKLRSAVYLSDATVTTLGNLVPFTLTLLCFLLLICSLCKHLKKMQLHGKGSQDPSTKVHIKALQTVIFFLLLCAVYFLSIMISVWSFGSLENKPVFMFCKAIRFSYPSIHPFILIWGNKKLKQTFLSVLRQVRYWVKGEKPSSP
Text: (§2) These cells stably express a chimeric G protein constructed from human Gα16 and rat gustducin. Finally, we seeded the transfected cells at a density of 3×10^3 cells per well into 96-well black-wall, clear-bottom microtiter plates (Greiner).
(§3) Co-transfection of TAS2Rs with gustducin and phospholipase-Cβ2 into HEK-293 cells. Alternatively, we transfected simultaneously plasmid DNAs encoding one of the TAS2Rs, phospholipase-Cβ2 and α-gustducin into HEK-293 cells using the lipofectamine method. […] Thereafter, the transfected cells were seeded at a density of 3×10^3 cells per well into 96-well black-wall, clear-bottom microtiter plates (Greiner).
(§4) Thereafter, cells were gently washed in HBS by an automated plate washer (Denley Cellwash, Labsystenms) and transferred to the FLIPR (Molecular Devices). The FLIPR integrates an argon laser excitation source, a 96-well pipettor, and a detection system utilizing a Charged Coupled Device imaging camera. […] Fluorescence data were collected 1 min before and 10 min after stimulation. Data were collected every 6 s before and every 1 s after agonist stimulation. 50 μl of 3× concentrated agonists were delivered within 2 by the integrated 96-well pipettor to the wells containing 100 μl HBS. Agonist responses were quantified using the amplitudes of the fluorescence peaks. We averaged the responses of five wells containing cells expressing the same receptor and that received the same stimulus. Calcium traces were determined in triplicate of mock-transfected cells stimulated with the same concentration of tastant.

hTAS2R43 = hTAS2R43 (Homo sapiens, UniProt P59537, H212R/W35S)
Sequence of hTAS2R43 (P59537 whole entry W35S/H212R): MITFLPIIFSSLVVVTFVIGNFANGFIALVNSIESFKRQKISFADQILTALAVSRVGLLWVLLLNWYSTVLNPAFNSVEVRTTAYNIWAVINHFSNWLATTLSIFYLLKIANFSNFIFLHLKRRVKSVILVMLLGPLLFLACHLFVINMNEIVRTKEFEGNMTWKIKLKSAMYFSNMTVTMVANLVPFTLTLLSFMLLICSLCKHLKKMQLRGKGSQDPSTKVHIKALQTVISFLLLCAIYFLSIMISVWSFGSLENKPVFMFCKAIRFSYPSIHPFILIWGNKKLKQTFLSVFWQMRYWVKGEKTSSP
Text: as §2, §3, §4

SMILES | Approx. Threshold (hTAS2R46) | receptor activation (in words) (hTAS2R46) | Approx. Threshold (hTAS2R45) | receptor activation (in words) (hTAS2R45) | Approx. Threshold (hTAS2R10) | receptor activation (in words) (hTAS2R10) | Approx. Threshold (hTAS2R48) | receptor activation (in words) (hTAS2R48) | Approx. Threshold (hTAS2R44) | receptor activation (in words) (hTAS2R44) | Approx. Threshold (hTAS2R43)
CC1=C[C@@H]2[C@@H]3C4C(=C(C)[C@@H]3[C@@]13[C@@H]2[C@@](C)(O)CC[C@H]1[C@H](C)C(=O)O[C@@H]13)[C@H]1OC(=O)[C@@H](C)[C@@H]1CC[C@]4(C)O (some centres unmarked) [Absinthine] | 0.001 mM | activated | 0.003 mM | activated | 0.01 mM | activated | 0.03 mM | activated |  |  | 
CC1=CC(=O)NS(=O)(=O)O1 [Acesulfame K] |  |  |  |  |  |  |  |  | 0.5 mM | activated | No response up to 10 mM
